Patent publication US20260206763A1, “AMIDE COMPOUNDS OR SALTS THEREOF, BACTERICIDAL AGENTS FOR AGRICULTURE AND HORTICULTURE CONTAINING SAID COMPOUNDS, AND METHOD OF USING SAME” (NIHON NOHYAKU CO., LTD., priority 2022, published 2026)

Experiments:
Assay type in all cases: cell-based
Sclerotinia sclerotirum = assay: microbe, parasite or virus in culture; details: read-out: median effective concentration (EC50), mycelium growth inhibitory activity
Botrytis cinerea = assay: microbe, parasite or virus in culture; details: read-out: median effective concentration (EC50), mycelium growth inhibitory activity
Fusarium graminearum = assay: microbe, parasite or virus in culture; details: read-out: median effective concentration (EC50), mycelium growth inhibitory activity
Cochliobolus miyabeanus = assay: Antifungal activity test, mycelium growth inhibition on PDA medium; details: Bipolaris oryzae, read-out: median effective concentration (EC50), mycelium growth inhibitory activity
[1] = tested on: Botryosphaeria berengeriana

Cc1ccc(CNC(=O)C2(c3ccc(-c4ccccc4F)cc3)CC2(Cl)Cl)nc1 (centres unmarked) [I-A-261]
EC50 (Sclerotinia sclerotirum): ≤ 200 µg/mL
EC50 (Botrytis cinerea): ≤ 200 µg/mL
EC50 (Fusarium graminearum): ≤ 200 µg/mL
EC50 (Cochliobolus miyabeanus): ≤ 200 µg/mL

Cc1ccc(CNC(=O)C2(c3ccc(I)cc3)CC2(Cl)Cl)nc1 (centres unmarked) [I-A-257]
EC50 (Sclerotinia sclerotirum): ≤ 200 µg/mL
EC50 (Botrytis cinerea): ≤ 200 µg/mL
EC50 (Fusarium graminearum): ≤ 200 µg/mL
EC50 (Cochliobolus miyabeanus): ≤ 200 µg/mL

CC(C)(C)c1ccc(C2(C(=O)N3CCc4cccnc4C3)CC2(Cl)Cl)cc1 (centres unmarked) [I-A-371]
EC50 (Sclerotinia sclerotirum): ≤ 200 µg/mL
EC50 (Fusarium graminearum): ≤ 200 µg/mL
EC50 (Cochliobolus miyabeanus): ≤ 200 µg/mL

O=C(NCc1ccccn1)C1(c2ccc(C(F)(F)F)cc2)CC1(Cl)Cl (centres unmarked) [I-A-36]
median effective concentration (EC50), spore germination inhibitory activity [1]: ≤ 200 ppm

O=C(NCc1ccccn1)C1(c2ccc(N=C(c3ccccc3)c3ccccc3)cc2)CC1(Cl)Cl (centres unmarked) [I-A-159]
EC50 (Sclerotinia sclerotirum): ≤ 200 µg/mL
EC50 (Botrytis cinerea): ≤ 200 µg/mL
EC50 (Cochliobolus miyabeanus): ≤ 200 µg/mL

Cc1ccc(CNC(=O)C2(c3ccc(C4=CCCC4)cc3)CC2(Cl)Cl)nc1 (centres unmarked) [I-A-267]
EC50 (Sclerotinia sclerotirum): ≤ 200 µg/mL
EC50 (Botrytis cinerea): ≤ 200 µg/mL
EC50 (Fusarium graminearum): ≤ 200 µg/mL
EC50 (Cochliobolus miyabeanus): ≤ 200 µg/mL

Cc1ccc(CNC(=O)C2(c3ccc(C4=CCCCC4)cc3)CC2(Cl)Cl)nc1 (centres unmarked) [I-A-268]
EC50 (Sclerotinia sclerotirum): ≤ 200 µg/mL
EC50 (Botrytis cinerea): ≤ 200 µg/mL
EC50 (Fusarium graminearum): ≤ 200 µg/mL
EC50 (Cochliobolus miyabeanus): ≤ 200 µg/mL

Cc1ccc(CNC(=O)C2(c3ccc(Oc4nc5ccccc5s4)cc3)CC2(Cl)Cl)nc1 (centres unmarked) [I-A-288]
EC50 (Sclerotinia sclerotirum): ≤ 200 µg/mL
EC50 (Botrytis cinerea): ≤ 200 µg/mL
EC50 (Fusarium graminearum): ≤ 200 µg/mL
EC50 (Cochliobolus miyabeanus): ≤ 200 µg/mL

O=C1c2ccccc2COc2ccc(C3(C(=O)NCc4ccccn4)CC3(Cl)Cl)cc21 (centres unmarked) [I-A-78]
EC50 (Sclerotinia sclerotirum): ≤ 200 µg/mL
EC50 (Botrytis cinerea): ≤ 200 µg/mL
EC50 (Cochliobolus miyabeanus): ≤ 200 µg/mL

Cc1ccc(CNC(=O)C2(c3ccc(S(=O)(=O)c4ccccc4)cc3)CC2(Cl)Cl)[n+]([O-])c1 (centres unmarked) [I-A-280]
EC50 (Sclerotinia sclerotirum): ≤ 200 µg/mL
EC50 (Fusarium graminearum): ≤ 200 µg/mL
EC50 (Cochliobolus miyabeanus): ≤ 200 µg/mL

CC(C)(C)c1ccc(C2(C(=O)NCc3ccccn3)CC2(Cl)Cl)cc1 (centres unmarked) [I-A-101]
EC50 (Sclerotinia sclerotirum): ≤ 200 µg/mL
EC50 (Botrytis cinerea): ≤ 200 µg/mL
EC50 (Fusarium graminearum): ≤ 200 µg/mL
EC50 (Cochliobolus miyabeanus): ≤ 200 µg/mL

O=C(NCc1ccccn1)C1(c2ccc(-c3noc(C(F)(F)F)n3)cc2)CC1(Cl)Cl (centres unmarked) [I-A-132]
EC50 (Sclerotinia sclerotirum): ≤ 200 µg/mL
EC50 (Botrytis cinerea): ≤ 200 µg/mL
EC50 (Fusarium graminearum): ≤ 200 µg/mL
EC50 (Cochliobolus miyabeanus): ≤ 200 µg/mL
